In ChEMBL document CHEMBL3885861, “Open TG-GATES”:

Organism: Rattus norvegicus
Experiment: Open TG-GATES - Regimen: Daily Repeat
Assay type: toxicity, organism-based, Sprague-Dawley
Design: regimen Daily Repeat, gender Male, age 6 weeks
Conditions: in vivo, po, route gavage; for APTT / Bas / Eos / Fbg / Hb / Ht / Lym / MCH / MCHC / MCV / Mono / Neu / PT / Plat / RBC / Ret / WBC: tissue Blood; for KIDNEY_L / KIDNEY_R / KIDNEY_TOTAL: tissue Kidney; for LIVER: tissue Liver; for A/G / ALP / ALT / AST / BUN / CRE / Ca / Cl / DBIL / GLC / IP / K / LDH / Na / PL / RALB / TBIL / TC / TG / TP / gamma-GTP: tissue Plasma
[1] = 0 mg/kg, 72 h, dose level Control, time 3 day
[2] = 0 mg/kg, […], dose level Control, time 7 day
[3] = 0 mg/kg, […], dose level Control, time 14 day
[4] = 0 mg/kg, […], dose level Control, time 28 day
[5] = 30 mg/kg, 72 h, dose level Low, time 3 day
[6] = 30 mg/kg, […], dose level Low, time 7 day
[7] = 30 mg/kg, […], dose level Low, time 14 day
[8] = 30 mg/kg, […], dose level Low, time 28 day

## CCOC(=O)C(C)(C)Oc1ccc(Cl)cc1 [CLOFIBRATE]
[1]
  TERMINAL_BW: 239.8 g
  APTT: 20.7 s
  Bas: 0%
  Eos: 1%
  Fbg: 221 mg/dL
  Hb: 13.8 g/dL
  Ht: 39.5%
  Lym: 75%
  MCH: 21.3 pg
  MCHC: 34.9%
  MCV: 61.1 fL
  Mono: 3.2%
  Neu: 20.2%
  PT: 12.2 s
  Plat: 124.2 x10_4/uL
  RBC: 646.2 x10_4/ul
  Ret: 5.4%
  WBC: 98 x10_2/uL
  KIDNEY_L: 1 g
  KIDNEY_R: 1.1 g
  KIDNEY_TOTAL: 2.1 g
  LIVER: 12 g
  A/G: 1.6
  ALP: 881.8 IU/L
  ALT: 37.4 IU/L
  AST: 68 IU/L
  BUN: 14 mg/dL
  CRE: 0.4 mg/dL
  Ca: 11.1 mg/dL
  Cl: 102 meq/L
  DBIL: 0.088 mg/dL
  GLC: 194.2 mg/dL
  IP: 7 mg/dL
  K: 4.1 meq/L
  LDH: 230.6 IU/L
  Na: 140.6 meq/L
  PL: 162.4 mg/dL
  RALB: 3.5 g/dL
  TBIL: 0.1 mg/dL
  TC: 78 mg/dL
  TG: 137.2 mg/dL
  TP: 5.6 g/dL
  gamma-GTP: 1.2 IU/L
[2]
  TERMINAL_BW: 268.6 g
  APTT: 20.7 s
  Bas: 0%
  Eos: 0.8%
  Fbg: 238 mg/dL
  Hb: 14.4 g/dL
  Ht: 41%
  Lym: 81.6%
  MCH: 21.4 pg
  MCHC: 35.2%
  MCV: 60.8 fL
  Mono: 2.6%
  Neu: 14.6%
  PT: 11.8 s
  Plat: 118.2 x10_4/uL
  RBC: 675.8 x10_4/ul
  Ret: 5.1%
  WBC: 104.1 x10_2/uL
  KIDNEY_L: 1.1 g
  KIDNEY_R: 1.1 g
  KIDNEY_TOTAL: 2.2 g
  LIVER: 12.5 g
  A/G: 1.6
  ALP: 994.8 IU/L
  ALT: 33.8 IU/L
  AST: 64.6 IU/L
  BUN: 16.6 mg/dL
  CRE: 0.4 mg/dL
  Ca: 10.5 mg/dL
  Cl: 102.2 meq/L
  DBIL: 0.098 mg/dL
  GLC: 213.2 mg/dL
  IP: 7.2 mg/dL
  K: 3.8 meq/L
  LDH: 192.2 IU/L
  Na: 138.8 meq/L
  PL: 144.8 mg/dL
  RALB: 3.6 g/dL
  TBIL: 0.2 mg/dL
  TC: 70.2 mg/dL
  TG: 122 mg/dL
  TP: 5.8 g/dL
  gamma-GTP: 0.6 IU/L
[3]
  TERMINAL_BW: 332 g
  APTT: 19 s
  Bas: 0%
  Eos: 0.8%
  Fbg: 227.2 mg/dL
  Hb: 14.3 g/dL
  Ht: 41.2%
  Lym: 80.4%
  MCH: 20.3 pg
  MCHC: 34.6%
  MCV: 58.5 fL
  Mono: 3%
  Neu: 15%
  PT: 12.3 s
  Plat: 118.5 x10_4/uL
  RBC: 704.8 x10_4/ul
  Ret: 4.4%
  WBC: 137.8 x10_2/uL
  KIDNEY_L: 1.3 g
  KIDNEY_R: 1.3 g
  KIDNEY_TOTAL: 2.6 g
  LIVER: 14.9 g
  A/G: 1.3
  ALP: 852.2 IU/L
  ALT: 37.4 IU/L
  AST: 62 IU/L
  BUN: 16.2 mg/dL
  CRE: 0.4 mg/dL
  Ca: 10.6 mg/dL
  Cl: 101 meq/L
  DBIL: 0.082 mg/dL
  GLC: 209.4 mg/dL
  IP: 7 mg/dL
  K: 3.8 meq/L
  LDH: 155 IU/L
  Na: 140.4 meq/L
  PL: 148 mg/dL
  RALB: 3.4 g/dL
  TBIL: 0.1 mg/dL
  TC: 74.2 mg/dL
  TG: 118.4 mg/dL
  TP: 5.9 g/dL
  gamma-GTP: 0.8 IU/L
[4]
  TERMINAL_BW: 392.8 g
  APTT: 21.1 s
  Bas: 0%
  Eos: 1%
  Fbg: 219.4 mg/dL
  Hb: 15.2 g/dL
  Ht: 43.2%
  Lym: 81.4%
  MCH: 19.3 pg
  MCHC: 35.3%
  MCV: 54.9 fL
  Mono: 2.6%
  Neu: 14.4%
  PT: 12 s
  Plat: 119.8 x10_4/uL
  RBC: 786.6 x10_4/ul
  Ret: 2.1%
  WBC: 108.2 x10_2/uL
  KIDNEY_L: 1.4 g
  KIDNEY_R: 1.4 g
  KIDNEY_TOTAL: 2.8 g
  LIVER: 16 g
  A/G: 1.4
  ALP: 622.2 IU/L
  ALT: 31.2 IU/L
  AST: 57.4 IU/L
  BUN: 15.2 mg/dL
  CRE: 0.4 mg/dL
  Ca: 10.4 mg/dL
  Cl: 102.6 meq/L
  DBIL: 0.08 mg/dL
  GLC: 207.2 mg/dL
  IP: 5.9 mg/dL
  K: 3.8 meq/L
  LDH: 154.6 IU/L
  Na: 140.8 meq/L
  PL: 145.6 mg/dL
  RALB: 3.5 g/dL
  TBIL: 0.1 mg/dL
  TC: 66.8 mg/dL
  TG: 124.4 mg/dL
  TP: 6.1 g/dL
  gamma-GTP: 0.8 IU/L
[5]
  TERMINAL_BW: 242 g
  APTT: 20.9 s
  Bas: 0%
  Eos: 1%
  Fbg: 226 mg/dL
  Hb: 13.3 g/dL
  Ht: 38%
  Lym: 80.8%
  MCH: 21.4 pg
  MCHC: 35%
  MCV: 61.1 fL
  Mono: 3.2%
  Neu: 15%
  PT: 12.5 s
  Plat: 131.1 x10_4/uL
  RBC: 622.4 x10_4/ul
  Ret: 5%
  WBC: 108.6 x10_2/uL
  KIDNEY_L: 1 g
  KIDNEY_R: 1 g
  KIDNEY_TOTAL: 2.1 g
  LIVER: 12 g
  A/G: 1.6
  ALP: 1135 IU/L
  ALT: 42.4 IU/L
  AST: 72.2 IU/L
  BUN: 14.8 mg/dL
  CRE: 0.4 mg/dL
  Ca: 10.9 mg/dL
  Cl: 102 meq/L
  DBIL: 0.098 mg/dL
  GLC: 200.8 mg/dL
  IP: 6.3 mg/dL
  K: 4 meq/L
  LDH: 265.2 IU/L
  Na: 140.2 meq/L
  PL: 141 mg/dL
  RALB: 3.4 g/dL
  TBIL: 0.1 mg/dL
  TC: 67.6 mg/dL
  TG: 112.2 mg/dL
  TP: 5.6 g/dL
  gamma-GTP: 0.6 IU/L
[6]
  TERMINAL_BW: 265.8 g
  APTT: 20.2 s
  Bas: 0%
  Eos: 0.8%
  Fbg: 223.4 mg/dL
  Hb: 14.1 g/dL
  Ht: 39.7%
  Lym: 82%
  MCH: 21.9 pg
  MCHC: 35.5%
  MCV: 61.6 fL
  Mono: 2.6%
  Neu: 14.2%
  PT: 12 s
  Plat: 124.1 x10_4/uL
  RBC: 643.8 x10_4/ul
  Ret: 4.4%
  WBC: 88.1 x10_2/uL
  KIDNEY_L: 1.1 g
  KIDNEY_R: 1.1 g
  KIDNEY_TOTAL: 2.2 g
  LIVER: 12.4 g
  A/G: 1.6
  ALP: 883.2 IU/L
  ALT: 35.8 IU/L
  AST: 72 IU/L
  BUN: 16 mg/dL
  CRE: 0.4 mg/dL
  Ca: 10.4 mg/dL
  Cl: 103.2 meq/L
  DBIL: 0.07 mg/dL
  GLC: 213 mg/dL
  IP: 6.8 mg/dL
  K: 3.5 meq/L
  LDH: 245 IU/L
  Na: 141.4 meq/L
  PL: 127 mg/dL
  RALB: 3.6 g/dL
  TBIL: 0.1 mg/dL
  TC: 60 mg/dL
  TG: 96 mg/dL
  TP: 5.8 g/dL
  gamma-GTP: 0.8 IU/L
[7]
  TERMINAL_BW: 333.8 g
  APTT: 20.1 s
  Bas: 0%
  Eos: 1%
  Fbg: 219.4 mg/dL
  Hb: 13.9 g/dL
  Ht: 40.8%
  Lym: 78.4%
  MCH: 20 pg
  MCHC: 34%
  MCV: 58.9 fL
  Mono: 3.2%
  Neu: 17.2%
  PT: 12.3 s
  Plat: 131 x10_4/uL
  RBC: 694.6 x10_4/ul
  Ret: 4.8%
  WBC: 146.7 x10_2/uL
  KIDNEY_L: 1.3 g
  KIDNEY_R: 1.3 g
  KIDNEY_TOTAL: 2.6 g
  LIVER: 16 g
  A/G: 1.4
  ALP: 845.6 IU/L
  ALT: 32.4 IU/L
  AST: 56.8 IU/L
  BUN: 16.4 mg/dL
  CRE: 0.4 mg/dL
  Ca: 10.4 mg/dL
  Cl: 101.4 meq/L
  DBIL: 0.088 mg/dL
  GLC: 229.8 mg/dL
  IP: 7 mg/dL
  K: 4 meq/L
  LDH: 183.4 IU/L
  Na: 140.2 meq/L
  PL: 145.6 mg/dL
  RALB: 3.4 g/dL
  TBIL: 0.1 mg/dL
  TC: 64.8 mg/dL
  TG: 135 mg/dL
  TP: 5.8 g/dL
  gamma-GTP: 0.8 IU/L
[8]
  TERMINAL_BW: 411.4 g
  APTT: 20.8 s
  Bas: 0%
  Eos: 1%
  Fbg: 222 mg/dL
  Hb: 14.8 g/dL
  Ht: 42.7%
  Lym: 81.8%
  MCH: 18.5 pg
  MCHC: 34.7%
  MCV: 53.4 fL
  Mono: 2.6%
  Neu: 14.2%
  PT: 12.4 s
  Plat: 119.1 x10_4/uL
  RBC: 800 x10_4/ul
  Ret: 2.2%
  WBC: 140.9 x10_2/uL
  KIDNEY_L: 1.5 g
  KIDNEY_R: 1.5 g
  KIDNEY_TOTAL: 3 g
  LIVER: 16.9 g
  A/G: 1.4
  ALP: 741.4 IU/L
  ALT: 41 IU/L
  AST: 68.4 IU/L
  BUN: 14.6 mg/dL
  CRE: 0.4 mg/dL
  Ca: 10.3 mg/dL
  Cl: 102.2 meq/L
  DBIL: 0.084 mg/dL
  GLC: 207.8 mg/dL
  IP: 6.1 mg/dL
  K: 3.9 meq/L
  LDH: 165.8 IU/L
  Na: 140.4 meq/L
  PL: 134 mg/dL
  RALB: 3.4 g/dL
  TBIL: 0.1 mg/dL
  TC: 61.6 mg/dL
  TG: 121.6 mg/dL
  TP: 5.9 g/dL
  gamma-GTP: 0.8 IU/L
